We go through one compound from US12156888B2, “CAR T-cells for the treatment of bone metastatic cancer” (H. Lee Moffitt Cancer Center and Research Institute, Inc., priority 2018, dated 2024).

Molecules are shown by their SMILES.

For series [1], the system named is γδ (CAR)-T cells. The series can be described thus: IL-2 secretion by γδ (CAR)-T cells. The format is cell-based.
Series [2] deals with C4-2B luciferase expressing cells. The series can be described thus: Intratibial C4-2B bone metastatic CRPC model with human γδ T-cells, zoledronate or vehicle. The following applies: for Percentage of CD3Vd2 positive cells in flushed tibias, higher than control: zoledronate 0.1 mg/Kg. It counts as in vivo, NSG mice. The text has this: FIGS. 7A to 7D show C4-2B cells inoculated into NSG mice and treated with either zoledronate (ZOL) or vehicle control. After establishment and randomization mice ([…]) were inoculated with 3.5×10^6 […]. Subsets of mice were removed from the study at 1, 3 and 5 days late. […] Number illustrate the percentage of γδ T-cells in the total marrow analysis over time. […] FIG. 7C is a graph showing RLUs quantitated over time and the growth rates calculated for each group. Asterisk indicates statistical significance. Mice at the final time point were assessed for γδ T-cell localization (CD3), apoptosis (cleaved caspase-3; CC3) and proliferation (phospho histone H3; pHH3). […] Arrows indicate positivity. DAPI was used as a nuclear counterstain.
Next, the anti-tumor activity of γδ T-cells on established bone metastatic CRPC lesions in vivo was assessed. NSG (NOD.Cg-Prkdcscid112rgtm1Wjl/SzJ) immunocompromised mice were intratibially inoculated with C4-2B luciferase expressing cells (1×10^5) and once established were randomized in zoledronate (0.1 mg/Kg) or vehicle (saline) groups (n=25 per group) based on relative luminescence unit (RLU) measurement. One week later, mice received tail vein injections of human γδ T-cells (3.5×10^6/mouse).
Groups of mice (n=5) were removed from the study 1, 3, 5 days subsequent to injection with tibias being flushed and assessed for human CD3 Vd2 content by flow cytometry. […] Bioluminescence was used as a correlate of tumor growth.

In series [3] the test system is Panc02.03 pancreatic cancer cells. Put plainly: IPP production in response to zoledronate, LC-MS/MS of cell extracts. The format is cell-based. The following applies: Panc02.03 cells, prolonged treatment with high doses. As to the method: (§1) Following treatment of tumor cells with ZOL, IPP was measured in cell extracts by tandem LC-MS/MS, using AppCp as an internal standard. […] ZOL treatment was administered for 1 h or 18 h, at 2 different doses: 10 μM or 25 μM.
(§2) In order to verify that zoledronate effectively induces IPP accumulation in a model system, C4-2B-PSCA-Luc human CRPC prostate cancer cells were treated with 10 μM or 25 μM of zoledronate, for 1 h or 18 h. Intracellular IPP levels were measured using a semi-quantitative mass spectrometry assay. T47D breast cancer cells were used as positive control, and Panc02.03 pancreatic cancer cells were used as negative controls.

The test system of series [4] is T47D breast cancer cells. The description is as above. It counts as cell-based. As to the method: as §1, §2
In series [5] the test system is C4-2B-PSCA-Luc human CRPC prostate cancer cells. Described as above. The format is cell-based. The following applies: C4-2B-PSCA-Luc cells, 10 μM or 25 μM, 1 h or 18 h. As to the method:
as §1, §2

For series [6], the system named is PSCA-expressing C42B prostate cancer cells. Put plainly: IFNγ ELISA of co-culture supernatants. The format is cell-based, human. As to the method: IFNγ ELISA of co-culture supernatants of C4-2B-PSCA cells exposed to media (negative control) or the indicated T cells, in presence of increasing concentrations of Zol (0, 0.4 and 0.8 μM).
Four variants of the anti-PSCA CAR were generated containing either CD27 (CD27z), CD28 (CD28z), or 4-1BB (BBz) costimulation. The fourth variant contains a CD27 costimulatory domain where the TRAF-binding site has been replaced with an inert flexible linker (G4S). γδ CAR-T cells expressing either CAR variant (or GFP as controls) were generated, and cocultured with PSCA-expressing C42B prostate cancer cells, in presence or absence of zoledronate, at the indicated doses. The presence of interferon-γ in the supernatants (measured by ELISA) was used as a marker of T cell activation. CAR-expressing T cells (but not untransduced or GFP-transduced cells) reacted to target cells by producing interferon-γ (solid bars).
γδ CAR-T cells recognize tumor cells via CAR and via TCR. The CAR- and TCR-mediated mechanisms of tumor cell recognition were tested using the CRPC C4-2BPSCA cell line. Cancer cells were treated with either untransduced (UT) control or CAR-expressing γδ T-cells, in the presence or absence of ZOL (0.4 μM). In presence of ZOL, control γδ T cells induced a cytotoxic effect at approx. 18 h, reflecting recognition of C4-2B-PSCA cells via TCR. […] The ability to induce a potent cytolytic effect with lesser cytokine production that can be modulated by ZOL is important since it may allow γδ (CAR−)T-cells to mediate more precise tumor killing, reducing the risk for complications related to massive cytokine release.
(In an ELISA, binding on a coated surface is turned into a signal by an enzyme label.)

Series [7] concerns C4-2B-PSCA cells. The series can be described thus: RTCA cytotoxicity assay of γδ T-cells. The format is cell-based, human. As to the method:
Summary of RTCA analysis of C4-2B-PSCA, or control PSCA null C4-2B, cells co-cultured with γδ CAR-T cells, or untransduced controls (UT). FIGS. […] show tumor cells without ZOL pretreatment. FIGS. 6C and 6D show tumor cells with 2 h ZOL pretreatment. FIGS. 6A and 6C show tumor cell viability 2 h post co-culture. FIGS. 6B and 6D show 30 h post co-culture.
The CAR- and TCR-mediated mechanism of tumor cell recognition were tested using the CRPC C4-2B cell line.

The mark [8] stands for this setting: study endpoint, compared to control.
The mark [9] stands for this setting: coculture with PSCA-expressing C42B cells.

Turning to `O=P(O)(O)C(O)(Cn1ccnc1)P(=O)(O)O` [zoledronate], the “Effect of zoledronate on IL-2 secretion by γδ (CAR)-T cells” value in series [1] was “increases IL-2 secretion”. Besides, the “Percentage of CD3Vd2 positive cells in flushed tibias, higher than control” value in series [2] (Day 1 after γδ T-cell injection) is above 61%; in series [2] (Day 3 after γδ T-cell injection), above 32%; in series [2] (Day 5 after γδ T-cell injection), above 57%. The “Apoptotic (cleaved caspase-3) cancer cells, tibia histology” value in series [2] (setting [8]) is “increased apoptotic”. For the same compound, the “Proliferative (phospo-Histone H3) cancer cells, tibia histology” value in series [2] (setting [8]) is reported as “decreased proliferative”. Also, in series [2] (zoledronate group compared to controls, all with γδ T-cells), the “C4-2B growth rate (bioluminescence)” value is given as “significantly slower”. Moreover, the “Intracellular IPP levels” value in series [3] is on record as “did not produce IPP”; in series [4] (1 h, high-dose zoledronate (doses 10 μM or 25 μM)), “detectable over background”; in series [4] (18 h, both doses (10 μM or 25 μM)) it was “detectable over background”; in series [5], “produced high levels of IPP”. For the same compound, the “Effect of ZOL on IFNγ secretion” value is given as “enhanced IFNγ secretion” in series [6] (coculture of γδ (CAR−)T-cells with C4-2BPSCA cells, Zol 0, 0.4 and 0.8 μM); “not observed” in series [6] (αβ T cells with C4-2BPSCA cells). Besides, the “Effect of zoledronate on interferon production by γδ CAR-T cells” value in series [6] (setting [9]) was “enhanced interferon production”. Further, in series [6] (setting [9]), the “Effect of zoledronate on target recognition by GFP-transduced and untransduced γδ T cells” value was “induced target recognition”. In addition, in series [7], the “Time at which control (untransduced) γδ T cells induced a cytotoxic effect” value was “approx. 18 h”. For the same compound, in series [7] (ZOL 0.4 μM), the “Effect of ZOL on cytolytic activity of γδ CAR-T” value is “greatly enhanced”.
